Consider four compounds from patent US10117871B2, “3-hydroxypyrimidine-2,4-dione-5-carboxamides as potent inhibitors of HIV” (Regents of the University of Minnesota, priority 2015, dated 2018).

One may read the CC50 as the concentration that lowers cell viability or growth by half. High values mean lower toxicity to the cells, low ones greater toxicity to the cells. As a reminder, the EC50 is the concentration that produces a half-maximal response. A word on the IC50: it is the point on the concentration scale where inhibition reaches its midpoint.

In data set [1] the test system is HIV-1 clone 8070-2 (G140S/Q148H). Type of data set: cell-based. Particulars: EC50(mutant)/EC50(WT).
In another data set the test system is CEM-SS cells. Nature of the data set: Compound cytotoxicity (MTS) in the HIV cytoprotection assay. Type of data set: cell-based. Particulars: for CC50: Concentration resulting in 50% cell death; for Cell viability %: 10 μM, CEM-SS cells. Here is the method: (§1) The antiviral activity of newly synthesized analogues of chemotype 7 was evaluated against HIV-1IIIB in CEM-SS cells using an assay based on viral cytopathic effect (CPE). In this assay, the reduction of CPE was used to indicate the antiviral activity of a compound.
(§2) Briefly virus and cells were mixed in the presence of test compound and incubated for 6 days. […] Each assay plate contained cell control wells (cells only), virus control wells (cells plus virus), compound toxicity control wells (cells plus compound only), compound colorimetric control wells (compound only) as well as experimental wells (compound plus cells plus virus). […] Each assay included AZT as a positive control.

The next data set has as its system HIV-1IIIB. Nature of the data set: HIV-1 cytoprotection (CPE reduction) antiviral assay. It is filed as cell-based. Particulars: for inhibition at 10 µM: read-out: CPE reduction %. Here is the method: as §1
Briefly virus and cells were mixed in the presence of test compound and incubated for 6 days. […] Each assay plate contained cell control wells (cells only), virus control wells (cells plus virus), compound toxicity control wells (cells plus compound only), compound colorimetric control wells (compound only) as well as experimental wells (compound plus cells plus virus). Cytoprotection and compound cytotoxicity were assessed by MTS (CellTiter® 96 Reagent, Promega, Madison Wis.) and the EC50 (concentration inhibiting virus replication by 50%), CC50 (concentration resulting in 50% cell death) and a calculated TI (therapeutic index CC50/EC50) were provided. Each assay included AZT as a positive control.

Data set [2] concerns HIV-1 clone 1556-1 (Y143C). It is filed as cell-based. As to conditions: EC50(mutant)/EC50(WT).
Data set [3] deals with HIV-1 clone 4736-2 (N155H). It is filed as cell-based. As to conditions: EC50(mutant)/EC50(WT).
Data set [4] concerns HIV-1 clone 8070-1 (G140S/Y143H/Q148H). Type of data set: cell-based. Particulars: EC50(mutant)/EC50(WT).
A short description of data set [5]: Compound cytotoxicity (MTS) in the HIV cytoprotection assay. Type of data set: cell-based. Particulars: human. Here is the method: as §1, §2
A further data set has as its target T1, HIV-1 integrase (Human immunodeficiency virus type 1 group M subtype B, UniProt P04585).
T1 construct: HIV integrase was expressed and purified as previously reported; made in house; host or cells: Escherichia coli
Nature of the data set: HIV-1 integrase strand transfer (INST) assay. Type of data set: biochemical. On the procedure:
HIV integrase was expressed and purified as previously reported.^43 Inhibition assays were performed using a modified protocol of a reported method.^43 Briefly, 2.1 μL of compound suspended in DMSO was placed in duplicate into a Black 96 well non-binding plate (coming 3991). Compounds were plated in duplicate to a final concentration of 0.13-100 μM. To each well of the plate 186.9 μL of reaction mixture without DNA substrate was added (10 mM HEPES pH 7.5, 10% glycerol w/v, 10 mM MnCl2, 1 mM DTT, 1 μM integrase). The enzyme was incubated with inhibitor for 10 min at 25° C. after which the reaction was initiated by the addition of 21 μL of 500 nM oligo (5′ biotin […] annealed with […] 3′ Cy5). Reactions were incubated at 37° C. for 30 min and then quenched by the addition of 5.2 μL 500 mM EDTA. Each reaction was moved (200 μL) to a MultiScreen HTS PCR plate (Millipore MSSLBPC10) containing 20 μL streptavidin agarose beads (Life Technologies S951) and incubated with shaking for 30 min. A vacuum manifold was used to remove the reaction mixture and the beads were similarly washed 3 times with wash buffer (0.05% SDS, 1 mM EDTA in PBS). The plates were further washed 3 times with 200 μL 50 mM NaOH to denature DNA not covalently linked to the biotin modification. For each denaturation step the plate was incubated with shaking at 25° C. for 5 min and the NaOH was removed by centrifugation at 1000 g for 1 min. The reaction products were eluted from the beads by the addition of 150 μL formamide. The plate was incubated at 25° C. for 10 min and read directly at 635/675 in a SpectraMax i3 plate reader (Molecular Devices). Expression and purification of the recombinant IN in Escherichia coli were performed as previously reported^39, 44 with addition of 10% glycerol to all buffers. Preparation of oligonucleotide substrates has been described.^45 Integrase reactions were performed in 10 μL with 400 nM of recombinant IN, 20 nM of 5′-end [^32P]-labeled oligonucleotide substrate and inhibitors at various concentrations. Solutions of 10% DMSO without inhibitors were used as controls. Reactions were incubated at 37° C. (60 minutes) in buffer containing 50 mM MOPS, pH 7.2, 7.5 mM MgCl2, and 14.3 mM 2-mercaptoethanol. Reactions were stopped by addition of 10 μL of loading dye (10 mM EDTA, 98% deionized formamide, 0.025% xylene cyanol and 0.025% bromophenol blue). Reactions were then subjected to electrophoresis in 20% polyacrylamide-7 M urea gels. Gels were dried and reaction products were visualized and quantitated with a Typhoon 8600 (GE Healthcare, Little Chalfont, Buckinghamshire, UK). Densitometric analyses were performed using ImageQuant from Molecular Dynamics Inc. The concentrations at which enzyme activity was reduced by 50% (IC50) were determined using “Prism” software (GraphPad Software, San Diego, Calif.) for nonlinear regression to fit dose-response data to logistic curve models.

The nature of data set [6]: Aqueous stability in DPBS. It is filed as physicochemical. As to conditions: DPBS (37° C.) over a 24 h period. Here is the method:
To assess drug-like properties of chemotype 7, selected analogues were tested in various in vitro ADME studies (Table 5). Aqueous stability and solubility were evaluated in Dulbecco's Phosphate-Buffered Saline (DPBS). […] Assessment of plasma and microsomal stability as well as plasma protein binding was done in two species, human and mouse. […] Microsomal stability of the compounds were evaluated in liver microsomes using either NADPH (phase I) or UDPGA (phase II) as cofactor.

[7] abbreviates: Human immunodeficiency virus 1, 10 μM, HIV-1IIIB in CEM-SS cells.

SMILES strings stand for the structures. Read-outs that look alike come from different tables or passages of the source.

With `Cc1cn([C@H]2C[C@H](N=[N+]=[N-])[C@@H](CO)O2)c(=O)[nH]c1=O` [AZT, reference compound], the Fold-resistance in data set [1] came out at 0.5; in data set [2] it was 1.4; in data set [3], 0.7; in [4], 0.9. Besides, the CC50 with CEM-SS cells is > 10 µM. Moreover, in the data set with HIV-1IIIB (Concentration inhibiting virus replication by 50%, dose response, read-out: EC50), the EC50 was 80 nM.

Take `CCNc1[nH]c(=O)n(O)c(=O)c1C(=O)NCc1cc(F)ccc1F` [Compound 7-xvii, N-(2,5-Difluorobenzyl)-1-(hydroxy)-4-(ethylamino)-1,2,3,6-tetrahydro-2,6-dioxopyrimidine-5-carboxamide]: in the data set with CEM-SS cells, the Cell viability % was 92%. This compound showed a CC50 at 6 days in data set [5] of 47 µM. The results for the IC50 at HIV-1 integrase (read-out: IC50 (ST)) and at HIV-1 integrase (read-out: INST IC50) were 21 to 77 nM and 68 ± 11 nM, respectively. Besides, the inhibition at 10 µM in the data set on HIV-1IIIB (Human immunodeficiency virus 1, CEM-SS) worked out at 100%. Also, the EC50 in the data set on HIV-1IIIB (Human immunodeficiency virus 1, Concentration inhibiting virus replication by 50%, dose response, read-out: EC50) was 32 nM; in the data set with HIV-1IIIB (Human immunodeficiency virus 1, summary of Table 2, read-out: EC50), 15 to 61 nM.

`CCNc1[nH]c(=O)n(O)c(=O)c1C(=O)NCc1ccc(Cl)c(F)c1` [Compound 7-xxii, N-(4-Chloro-3-fluorobenzyl)-1-(hydroxy)-4-(ethylamino)-1,2,3,6-tetrahydro-2,6-dioxopyrimidine-5-carboxamide]: in the data set with CEM-SS cells, the Cell viability % was 100% and the midpoint of cytotoxicity, the CC50, lay at 19 µM. Besides, the IC50 at HIV-1 integrase (read-out: INST IC50) is 120 ± 21 nM. The compound also registered a concentration giving a half-maximal response (EC50) with HIV-1IIIB (Human immunodeficiency virus 1) of 190 nM. Moreover, in the data set with HIV-1IIIB (setting [7]), the inhibition at 10 µM worked out at 100%. For the same compound, the “remaining in DPBS” value in data set [6] is on record as 86%.

For `CCNc1[nH]c(=O)n(O)c(=O)c1C(=O)NCc1cccc(Cl)c1F` [Compound 7-xxiii, N-(3-Chloro-2-fluorobenzyl)-1-(hydroxy)-4-(ethylamino)-1,2,3,6-tetrahydro-2,6-dioxopyrimidine-5-carboxamide], the Fold-resistance in data set [1] is listed as 13; in data set [2], 0.4; in [3], 2.4; in data set [4] it was 6.3. The compound further had a Cell viability % in the data set on CEM-SS cells of 100%. The same compound displayed a CC50 with CEM-SS cells of 18 µM. Further, the IC50 at HIV-1 integrase (read-out: INST IC50) amounted to 21 ± 2 nM. Further, a half-maximal response with HIV-1IIIB (Human immunodeficiency virus 1) (EC50) required 15 nM. Besides, the inhibition at 10 µM in the data set with HIV-1IIIB (setting [7]) came to 100%.
